Read-outs that look alike come from different tables or passages of the source.
Legend:
Format in all cases: cell-based
[1] = biological target: T1, glucocorticoid receptor (GR) (Homo sapiens, UniProt P04150); experiment: Assay for agonist activity on glucocorticoid receptor (luciferase reporter, HEK293 cells transfected with pBIND-GR plasmid)
T1 sequence (P04150 521-777): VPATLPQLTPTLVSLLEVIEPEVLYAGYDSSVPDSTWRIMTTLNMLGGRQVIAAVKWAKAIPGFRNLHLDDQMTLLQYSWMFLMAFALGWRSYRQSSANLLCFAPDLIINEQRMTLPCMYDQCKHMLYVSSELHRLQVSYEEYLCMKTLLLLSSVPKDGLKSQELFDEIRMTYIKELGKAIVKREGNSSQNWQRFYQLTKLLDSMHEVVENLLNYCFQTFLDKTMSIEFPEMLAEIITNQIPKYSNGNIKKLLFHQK
Procedure, shortened: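 HEK293 cells transfected with pBIND-GR, seeded in phenol red-free DMEM with 5% charcoal-stripped serum, then exposed to compounds in a 10-point, 4-fold dilution series from 10 µM, in duplicate. Luciferase luminescence read after incubation; EC50 from nonlinear fit. Vehicle blank: 0.1% DMSO.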

[2] = biological target: T2, mineralocorticoid receptor (MR) (Homo sapiens, UniProt P08235); experiment: Assay for agonist activity on mineralocorticoid receptor (luciferase reporter, HEK293 cells transfected with pBIND-MR plasmid); conditions: for EC50: EC50 of agonist activity, HEK293 reporter cells, top concentration 50 µM, read-out: Nuclear receptor enzyme activity (nM) MR; for Target selectivity MR/GR: ratio of EC50 values
T2 sequence (P08235 726-984): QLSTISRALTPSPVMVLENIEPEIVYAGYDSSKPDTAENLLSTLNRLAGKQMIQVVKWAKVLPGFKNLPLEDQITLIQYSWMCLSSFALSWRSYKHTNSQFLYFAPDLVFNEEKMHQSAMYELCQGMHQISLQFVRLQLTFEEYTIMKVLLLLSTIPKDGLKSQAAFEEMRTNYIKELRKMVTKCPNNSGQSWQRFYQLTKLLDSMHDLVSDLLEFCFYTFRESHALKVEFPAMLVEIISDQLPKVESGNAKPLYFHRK
Description: (§1) Pharmacological Example 2: Assay for Agonist Activity on Mineralocorticoid Receptor (MR) and Progesterone Receptor (PR)
(§2) Test compound stock solutions: The test compounds (compounds 4, 5, 7, 8, 9, 11, 13, 16, 17, 18, 22, 23, 24, 34, 35, 36, 38, 41, 45, 47, 53, 55, and 59) were accurately weighed, dissolved in DMSO to prepare stock solutions at a concentration of 20 mM, and stored at -20 °C.
(§3) The test compounds were subjected to a 4-fold serial dilution starting from an initial concentration of 50 µ M, generating a 12-point concentration gradient with duplicate wells for each concentration. The blank control consisted of 0.1% DMSO.
(§4) The HEK293 stable cell lines […] transfected with mineralocorticoid receptor (MR) and progesterone receptor (PR) (ICE Bioscience, Lot No. TYP-20220819, TPJ-20220812) were cultured in Dulbecco's Modified Eagle Medium (DMEM) supplemented with 10% fetal bovine serum (FBS) and 200 µ g/ml Hygromycin B in a cell incubator containing 5% CO2 at 37 °C. The spent medium was aspirated, and the cells were washed once with phosphate-buffered saline (PBS). Then, 1 mL of TrypLE™ Express solution was added, and the cells were incubated at 37 °C for approximately 2 min. When the cells detached from the bottom of the cell culture dish, approximately 5 mL of pre-warmed complete medium at 37 °C was added. The cell suspension was gently pipetted with a pipette to dissociate clumped cells. The cell suspension was transferred to a sterile centrifuge tube and centrifuged at 1000 rpm for 5 min to pellet the cells for experiments or subculture..
(§5) HEK293 cells were digested and seeded into 6-cm culture dishes. The pBIND-MR and pBIND-PR plasmids were separately transfected into the HEK293 cells using a transfection reagent, resulting in HEK293 cells successfully transfected with the pBIND-MR and pBIND-PR plasmids, respectively. The cells were resuspended in phenol red-free DMEM medium containing 5% charcoal-stripped serum, counted, and then seeded into 96-well plates. The test compounds were added, and the plates were then incubated in an incubator. The luminescence signal values were measured using a multimode microplate reader following the instructions of the luciferase assay kit. The EC50 values of each test compound were calculated using the nonlinear fitting formula with GraphPad Prism 8.0 software.

[3] = biological target: T3, progesterone receptor (PR) (Homo sapiens, UniProt P06401); experiment: Assay for agonist activity on progesterone receptor (luciferase reporter, HEK293 cells transfected with pBIND-PR plasmid); conditions: for EC50: EC50 of agonist activity, HEK293 reporter cells, top concentration 50 µM, read-out: Nuclear receptor enzyme activity (nM) PR; for Target selectivity PR/GR: ratio of EC50 values
T3 sequence (P06401 678-933): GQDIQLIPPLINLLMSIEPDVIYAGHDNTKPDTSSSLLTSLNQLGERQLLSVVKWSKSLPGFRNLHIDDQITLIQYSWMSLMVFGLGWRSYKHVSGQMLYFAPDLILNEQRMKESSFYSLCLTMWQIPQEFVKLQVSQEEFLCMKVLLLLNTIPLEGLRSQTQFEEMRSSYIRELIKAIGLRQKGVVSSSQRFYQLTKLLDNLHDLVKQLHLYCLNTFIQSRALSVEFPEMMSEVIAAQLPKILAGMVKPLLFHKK
Description: as §1, §2, §3, §4, §5

[4] = EC50 of agonist activity, HEK293 reporter cells, read-out: Nuclear receptor enzyme activity (nM) GR
[5] = HEK293 cells transfected with pBIND-GR, luciferase signal, read-out: GR agonist EC50

C[C@]12C=CC(=O)C=C1[C@@H](F)C[C@H]1[C@@H]3C[C@H]4OC(c5ccc(CNC6CCOC6=O)cc5)O[C@@]4(C(=O)CO)[C@@]3(C)C[C@H](O)[C@@]12F (stereo partly drawn) [Compound 9, (2S,6aS,6bR,7S,8aS,8bS,11aR,12aS,12bS)-2,6b-Difluoro-7-hydroxy-8b-(2-hydroxyacetyl)-6a,8a-dimethyl-10-(4-(((2-oxotetrahydrofuran-3-yl)amino)methyl)phenyl)-1,2,6a,6b,7,8,8a,8b,11a,12,12 a,12b-dodecahydro-4H-naphtho[2',1':4,5]indeno[1,2-d][1,3]dioxol-4-one]
EC50 [1, 4]: 3.27 nM
EC50 [1, 5]: 3.27 nM
EC50 [2]: > 50000 nM
Target selectivity MR/GR [2]: > 1.5×10^4
EC50 [3]: > 50000 nM
Target selectivity PR/GR [3]: > 1.5×10^4

C[C@]12C=CC(=O)C=C1CC[C@H]1[C@@H]3C[C@H]4OC(C5CCC(SC6CCOC6=O)CC5)O[C@@]4(C(=O)CO)[C@@]3(C)C[C@H](O)[C@@]12F (stereo partly drawn) [Compound 45, (6aS,6bR,7S,8aS,8bS,11aR,12aS,12bS)-6b-Fluoro-7-hydroxy-8b-(2-hydroxyacetyl)-6a,8a-dimethyl-10-(4-((2-oxotetrahydrofuran-3-yl)thio)cyclohexyl)-1,2,6a,6b,7,8,8a,8b,11a,12,12a,12b-dodeca hydro-4H-naphtho[2',1':4,5]indeno[1,2-d][1,3]dioxol-4-one]
EC50 [1, 4]: 1.62 nM
EC50 [1, 5]: 1.62 nM
EC50 [2]: > 50000 nM
Target selectivity MR/GR [2]: > 3.1×10^4
EC50 [3]: > 50000 nM
Target selectivity PR/GR [3]: > 3.1×10^4

C[C@]12C=CC(=O)C=C1[C@@H](F)C[C@H]1[C@@H]3C[C@H]4OC(c5ccc(NC(=O)C6COC(=O)C6)cc5)O[C@@]4(C(=O)SCF)[C@@]3(C)C[C@H](O)[C@@]12F (stereo partly drawn) [Compound 5, S-(Fluoromethyl) (2S,6aS,6bR,7S,8aS,8bS,11aR,12aS,12bS)-2,6b-difluoro-7-hydroxy-6a,8a-dimethyl-4-oxo-10-(4-(5-oxotetrahydrofuran-3-carboxamido)phenyl)-1,2,4,6a,6b,7,8,8a,11a,12,12a,12b-dodecahydro-8b H-naphtho[2',1':4,5]indeno[1,2-d][1,3]dioxole-8b-carbothioate]
EC50 [1, 4]: 5.23 nM
EC50 [1, 5]: 5.23 nM
EC50 [2]: > 50000 nM
Target selectivity MR/GR [2]: > 9560
EC50 [3]: > 50000 nM
Target selectivity PR/GR [3]: > 9560

C[C@]12C=CC(=O)C=C1CC[C@H]1[C@@H]3C[C@H]4OC(c5ccc(CS(=O)(=O)C6CCOC6=O)cc5)O[C@@]4(C(=O)CO)[C@@]3(C)C[C@H](O)[C@@]12F (stereo partly drawn) [Compound 59, (6aS,6bR,7S,8aS,8bS,11aR,12aS,12bS)-6b-Fluoro-7-hydroxy-8b-(2-hydroxyacetyl)-6a,8a-dimethyl-10-(4-(((2-oxotetrahydrofuran-3-yl)sulfonyl)methyl)phenyl)-1,2,6a,6b,7,8,8a,8b,11a,12,12a,12b-dodecahydro-4H-naphtho[2',1':4,5]indeno[1,2-d][1,3]dioxol-4-one]
EC50 [1, 4]: 4.01 nM
EC50 [1, 5]: 4.01 nM
EC50 [2]: > 50000 nM
Target selectivity MR/GR [2]: > 1.2×10^4
EC50 [3]: > 50000 nM
Target selectivity PR/GR [3]: > 1.2×10^4

C[C@]12C=CC(=O)C=C1[C@@H](F)C[C@H]1[C@@H]3C[C@H]4OC(c5ccc(C[S+]([O-])C6CCOC6=O)cc5)O[C@@]4(C(=O)CO)[C@@]3(C)C[C@H](O)[C@@]12F (stereo partly drawn) [Compound 55, (2S,6aS,6bR,7S,8aS,8bS,11aR,12aS,12bS)-2,6b-Difluoro-7-hydroxy-8b-(2-hydroxyacetyl)-6a,8a-dimethyl-10-(4-(((2-oxotetrahydrofuran-3-yl)sulfinyl)methyl)phenyl)-1,2,6a,6b,7,8,8a,8b,11a,12,1 2a,12b-dodecahydro-4H-naphtho[2',1':4,5]indeno[1,2-d][1,3]dioxol-4-one]
EC50 [1, 4]: 1.33 nM
EC50 [1, 5]: 1.33 nM
EC50 [2]: > 50000 nM
Target selectivity MR/GR [2]: > 3.8×10^4
EC50 [3]: > 50000 nM
Target selectivity PR/GR [3]: > 3.8×10^4

From patent EP4635969A1, “NOVEL GLUCOCORTICOID, METHOD FOR PREPARING SAME, AND USE THEREOF” (Tianjin Pharmaceutical Biotechnology Co., Ltd., priority 2022, dated 2024)
